Measured values from US20230285323A1, “ESKETAMINE-SUSPENSION-TTS” (LTS LOHMANN THERAPIE-SYSTEME AG, priority 2020, published 2023).

Assay: Saturation concentration (solubility) of ketamine in silicone pressure sensitive adhesive

## CNC1(c2ccccc2Cl)CCCCC1=O (racemic) [ketamine, (RS)-(±)-2-(2-chlorophenyl)-2-(methylamino)cyclohexan-1-one]
  Solubility of ketamine in the silicone pressure sensitive adhesive: not more than 1 wt.-%
